# Experimental data taken from publication PMC12378234, “Enzyme-mediated aminoglycoside resistance without target mimicry” (Communications Chemistry, 2025).
# Values joined by “and” are separate entries in the source; they are usually repeats but may differ in a detail not shown here. Identical values can stand only once. Like-named read-outs stand apart in the source and are kept apart here.
# Experiments:
# [1] = target: AAC(3)-XIa from Corynebacterium striatum (Corynebacterium striatum); experiment: crystal structure; AAC(3)-XIa partial-apo, with AcCoA, or with CoASH/AcNHCoA and an aminoglycoside; sitting-drop vapor diffusion at 22 °C, 0.1 M trisodium acetate pH 4.6, 10–30% MPD, 0–24% PEG 200; both protomers of the dimer in the asymmetric unit
# AAC(3)-Ia = AAC(3)-Ia (Acinetobacter baumannii, UniProt D7R512); experiment: Isothermal titration calorimetry; assay type: binding
# Protocol: (§1) To accurately measure protein ligand interactions, the concentration of our proteins of interest was measured spectrophotometrically using the NanoDrop OneC Spectrometer (Thermo Scientific). ITC experiments were performed on a MicroCal iTC 200 (General Electric) at 25 °C with stirring at 750 rpm. Unique buffer solutions were used for each enzyme. AAC(3)-Ia was prepared in 50 mM HEPES, pH 7, and 150 mM NaCl. AAC(3)-IIIa was prepared in 120 mM Tris, pH 7.5, and 150 mM NaCl. AAC(3)-XIa was prepared in 20 mM Tris, pH 7.5, and 150 mM NaCl. The cell contained 550 μM AAC(3)-Ia, 350 μM AAC(3)-IIIa, or 450 μM AAC(3)-XIa. All experiments also contained 5000 μM of coenzyme A trilithium salt in the cell. […] In all ITC experiments, aminoglycosides were prepared in the same buffering solution as the target protein. The ligands were injected 29 times ([…] per injection) with a 180 s interval between injections. Results were analyzed using ORIGIN software version 7E (MicroCal) using the molecular weight of a single protomer of each protein and fitted with a two-set of sites binding model (Supplementary Fig. 5). Data analysis was performed in Microsoft Excel and GraphPad5 software. One-way ANOVA and Tukey’s multiple comparison tests were used to determine the statistical significance of binding affinities.
# AAC(3)-XIa = AAC(3)-XIa (Corynebacterium striatum, UniProt A0ABX7DED9); experiment: Isothermal titration calorimetry; assay type: binding; details: 25 °C, with coenzyme A, n = 3
# Protocol: as §1
# AAC(3)-IIIa = target: T1, AAC(3)-IIIa (Pseudomonas aeruginosa, UniProt P29808); experiment: Isothermal titration calorimetry; assay type: binding, P. aeruginosa
# T1 construct: 6xHis-tag (thrombin-cleavable, pET15b) (N); made in house; host or cells: LOBSTR E. coli
# Protocol: as §1
# [2] = tested on: BL21(DE3) E. coli transformed with pUCP18 vector expressing AAC(3)-IIIa; experiment: Antibiotic susceptibility testing, endpoint MIC assay; assay type: cell-based; details: Escherichia coli, 20 h, read-out: Endpoint minimum inhibitory concentration (MIC)
# Protocol: (§2) Ten milliliters of cultures of LB containing […] ampicillin were inoculated from glycerol stocks of transformed BL21(DE3) E. coli containing genes expressing the proteins of interest in pUCP18 vectors. Experiments were performed using 6xHis-tagged fusion-proteins, as well as untagged wild-type proteins. These cultures were incubated at 37 °C with 200 rpm agitation for 16 h. Turbidity was measured through OD600 with a NanoDrop OneC Spectrometer (Thermo Scientific). From the initial cultures, secondary 10 mL cultures were prepared with OD600 values of 0.1. These cultures were grown until OD600 values of 0.4–0.6 were reached and diluted to bring all cultures to the same OD600. Cultures were induced with 1 mM Isopropyl β-D-1-thiogalactopyranoside and incubated for 4 h. Cultures were diluted to 1 × 10^6 cells mL^−1. Two microliters of culture was added to 198 μL of LB with an appropriate aminoglycoside titration concentration. The formulated 96-well culture plate (Sarstedt) was incubated at 37 °C with 120 rpm orbital agitation. The remainder of the bacterial culture was immediately lysed and processed for Western blotting. OD600 was measured after 20 h using the Molecular Devices Spectra MAX 190 plate reader.
# [3] = tested on: BL21(DE3) E. coli transformed with pUCP18 vector expressing AAC(3)-Ia; experiment: as above; assay type: cell-based; details: Escherichia coli, 20 h, read-out: Endpoint minimum inhibitory concentration (MIC)
# Protocol: as §2
# [4] = tested on: BL21(DE3) E. coli transformed with pUCP18 vector expressing AAC(3)-XIa; experiment: as above; assay type: cell-based; details: Escherichia coli, 20 h, read-out: Endpoint minimum inhibitory concentration (MIC)
# Protocol: as §2
# [5] = tested on: empty pUCP18 vector transformed E. coli; experiment: as above; assay type: cell-based; details: Escherichia coli; empty pUCP18 vector control E. coli; after 20 h of growth; read-out: Endpoint minimum inhibitory concentration (MIC)
# Protocol: as §2
# [6] = tested on: BL21(DE3) E. coli transformed with pUCP18 vector expressing untagged AAC(3)-IIIa; assay type: cell-based; details: E. coli expressing AAC(3)-IIIa
# Protocol: (§3) Ten milliliters of LB containing […] ampicillin were inoculated from glycerol stocks of transformed BL21(DE3) E. coli containing genes expressing the proteins of interest in pUCP18 vectors. These cultures were incubated at 37 °C with 200 rpm agitation for 16 h. Turbidity was measured through OD600 with a NanoDrop OneC Spectrometer (Thermo Scientific). From the initial cultures, secondary 10 mL cultures were prepared with OD600 values of 0.1. These cultures were grown until OD600 values of 0.4–0.6 were reached and diluted to bring all cultures to the same OD600. Cultures were induced with 1 mM Isopropyl β-D-1-thiogalactopyranoside and incubated for 4 h. Two microliters of culture was added to 198 μL of LB with an appropriate aminoglycoside titration concentration. Each titration point was repeated n = 4 times. The formulated 96-well culture plate (Sarstedt) had OD600 measured on a 20-min interval over 17 h using a BioTek Cytation 5 Cell Imaging Multimode Reader, incubating at 37 °C with 282 cpm orbital agitation. Experiments were repeated with fresh cultures on separate days to ensure consistent trends. Data was analyzed in Microsoft Excel and GraphPad5. The remainder of the culture immediately had its RNA isolated for qPCR experiments.
# [7] = tested on: BL21(DE3) E. coli transformed with pUCP18 vector expressing untagged AAC(3)-Ia; assay type: cell-based; details: E. coli expressing AAC(3)-Ia
# Protocol: as §3
# [8] = tested on: BL21(DE3) E. coli transformed with pUCP18 vector expressing untagged AAC(3)-XIa; assay type: cell-based; details: E. coli expressing AAC(3)-XIa
# Protocol: as §3
# [9] = tested on: CNC(C)C1CCC(N)C(OC2C(N)CC(N)C(OC3OCC(C)(O)C(NC)C3O)C2O)O1; experiment: purified protein, by the assay type; details: other: AAC(3)-IIIa, 22 °C, pH 6.5, 150 μM acetyl coenzyme A, n = 3
# Protocol: The acetylation of aminoglycosides was measured by a coupled assay, where the formation of pyridine-4-thiolate can be detected at 324 nm[42],[43]. The kinetic assays were performed at room temperature (22 °C) in quartz cuvettes (pathlength 1 cm) at a final volume of 0.8 mL. Reaction solution contained 25 mM MOPS pH 6.5, 100 mM NaCl, 500 μM 4,4’-dipyridyl disulfide (Aldrithiol™-4, Sigma-Aldrich), 150 μM acetyl coenzyme A, and aminoglycoside concentrations varying from 1.25 to 160 μM. […] All reactions were run in triplicate, and data analysis was performed using GraphPad5 software. One-way ANOVA and Tukey’s multiple comparison tests were used to determine the statistical significance of catalytic efficiencies.
# [10] = target: AAC(3)-Ia from Acinetobacter baumannii (Acinetobacter baumannii); experiment: crystal structure; AAC(3)-Ia with CoASH, with or without sisomicin; sitting-drop vapor diffusion at 22 °C, 0.1 M Tris pH 8.5, 0.05 M MgCl2, 20% EtOH, 35% PEG 400; one protomer per asymmetric unit, dimer by crystallographic symmetry
# [11] = tested on: CNC(C)C1CCC(N)C(OC2C(N)CC(N)C(OC3OCC(C)(O)C(NC)C3O)C2O)O1; experiment: Michaelis-Menten kinetics, coupled acetylation assay (pyridine-4-thiolate at 324 nm); assay type: biochemical, Corynebacterium striatum; details: other: AAC(3)-XIa, 22 °C, pH 6.5, 150 μM acetyl coenzyme A, n = 3
# Protocol: (§4) The acetylation of aminoglycosides was measured by a coupled assay, where the formation of pyridine-4-thiolate can be detected at 324 nm[42],[43]. The kinetic assays were performed at room temperature (22 °C) in quartz cuvettes (pathlength 1 cm) at a final volume of 0.8 mL. Reaction solution contained 25 mM MOPS pH 6.5, 100 mM NaCl, 500 μM 4,4’-dipyridyl disulfide (Aldrithiol™-4, Sigma-Aldrich), 150 μM acetyl coenzyme A, and aminoglycoside concentrations varying from 1.25 to 160 μM. The reaction was initialized by the addition of AAC(3)-Ia to a final concentration of 0.2 μM, AAC(3)-XIa to a final concentration of 1.94 μM, or AAC(3)-IIIa to a final concentration of 0.4 μM, where UV absorbance was measured over 5 min. All reactions were run in triplicate, and data analysis was performed using GraphPad5 software. One-way ANOVA and Tukey’s multiple comparison tests were used to determine the statistical significance of catalytic efficiencies.
# [12] = tested on: CN[C@@H]1[C@@H](O)[C@@H](O[C@@H]2[C@@H](O)[C@H](O[C@H]3OC(CN)=CC[C@H]3N)[C@@H](N)C[C@H]2N)OC[C@]1(C)O; experiment: as above; assay type: biochemical, Corynebacterium striatum; details: other: AAC(3)-XIa, 22 °C, pH 6.5, 150 μM acetyl coenzyme A, n = 3
# Protocol: as §4
# [13] = AAC(3)-Ia, first set of sites, 25 °C, with coenzyme A, n = 3
# [14] = AAC(3)-Ia, second set of sites, 25 °C, with coenzyme A, n = 3
# [15] = AAC(3)-XIa, second set of sites
# [16] = first set of sites, 25 °C, with coenzyme A, n = 3
# [17] = second set of sites, 25 °C, with coenzyme A, n = 3
# [18] = 6 μg mL^−1 sisomicin, 3 μg mL^−1 gentamicin
compound,measurement,setting,value
AAC(3)-XIa from Corynebacterium striatum (enzyme),stoichiometry N,[1],2
"CNC(C)C1CCC(N)C(OC2C(N)CC(N)C(OC3OCC(C)(O)C(NC)C3O)C2O)O1 (centres unmarked) [Gentamicin, gentamicin]",TΔS,AAC(3)-Ia; [13],-0.808 ± 0.343 kcal/mol
same,ΔG,AAC(3)-Ia; [13],-6.52 ± 0.418 kcal/mol
same,ΔH,AAC(3)-Ia; [13],-7.33 ± 0.238 kcal/mol
same,N (sites),"AAC(3)-Ia; AAC(3)-Ia, first set of sites, two-set of sites model, 25 °C, with coenzyme A, n = 3",0.49 ± 0.02 sites
same,N2 (sites),AAC(3)-Ia; [14],0.57 ± 0.02 sites
same,TΔS 2,AAC(3)-Ia; [14],4.24 ± 0.08 kcal/mol
same,ΔG 2,AAC(3)-Ia; [14],-6.3 ± 0.112 kcal/mol
same,ΔH 2,AAC(3)-Ia; [14],-2.06 ± 0.08 kcal/mol
same,Kd,"AAC(3)-Ia; Kd2, AAC(3)-Ia, second set of sites, 25 °C, with coenzyme A, n = 3",23.8 ± 0.3 µM
same,Kd,"AAC(3)-Ia; Kd, AAC(3)-Ia, first set of sites, two-set of sites model, 25 °C, with coenzyme A, n = 3",17.1 ± 3.2 µM
same,Kd,"AAC(3)-Ia; Kd, AAC(3)-Ia, individual replicates, raw data behind Fig. 6",23.5 µM and 13.4 µM and 14.4 µM
same,TΔS,"AAC(3)-XIa; AAC(3)-XIa, first set of sites",-1.38 ± 0.171 kcal/mol
same,ΔG,"AAC(3)-XIa; AAC(3)-XIa, first set of sites",-5.38 ± 2.88 kcal/mol
same,ΔH,"AAC(3)-XIa; AAC(3)-XIa, first set of sites",-6.77 ± 2.87 kcal/mol
same,N (sites),"AAC(3)-XIa; AAC(3)-XIa, first set of sites, two-set of sites model",0.28 ± 0.06 sites
same,N2 (sites),AAC(3)-XIa; [15],0.31 ± 0.05 sites
same,TΔS 2,AAC(3)-XIa; [15],-2.916 ± 1.036 kcal/mol
same,ΔG 2,AAC(3)-XIa; [15],-7.042 ± 1.18 kcal/mol
same,ΔH 2,AAC(3)-XIa; [15],-9.958 ± 0.567 kcal/mol
same,Kd,"AAC(3)-XIa; Kd2, AAC(3)-XIa, second set of sites",8.5 ± 5.5 µM
same,Kd,"AAC(3)-XIa; Kd, AAC(3)-XIa, first set of sites, two-set of sites model",6.1 ± 1.8 µM
same,TΔS,AAC(3)-IIIa; [16],3.6 ± 0.053 kcal/mol
same,ΔG,AAC(3)-IIIa; [16],-6.94 ± 0.077 kcal/mol
same,ΔH,AAC(3)-IIIa; [16],-3.34 ± 0.056 kcal/mol
same,N (sites),"AAC(3)-IIIa; first set of sites, two-set of sites model, 25 °C, with coenzyme A, n = 3",0.63 ± 0.01 sites
same,Kd,"AAC(3)-IIIa; first set of sites, two-set of sites model, 25 °C, with coenzyme A, n = 3, read-out: Kd",8.3 ± 0.2 µM
same,Kd,"AAC(3)-IIIa; individual replicates, raw data behind Fig. 6, read-out: Kd",8 µM and 8.13 µM and 8.7 µM
same,N2 (sites),AAC(3)-IIIa; [17],0.63 ± 0.01 sites
same,TΔS 2,AAC(3)-IIIa; [17],5.24 ± 0.043 kcal/mol
same,ΔG 2,AAC(3)-IIIa; [17],-6.69 ± 0.077 kcal/mol
same,ΔH 2,AAC(3)-IIIa; [17],-1.46 ± 0.063 kcal/mol
same,Kd,"AAC(3)-IIIa; second set of sites, 25 °C, with coenzyme A, n = 3, read-out: Kd2",12.4 ± 0.5 µM
same,MIC,[2],12 µg/mL
same,MIC,[3],6 µg/mL
same,MIC,[4],12 µg/mL
same,MIC,[5],6 µg/mL
same,Level of resistance relative to empty vector control (OD600 growth curve),[6]; [18],greater level of resistance than the empty vector control
same,Growth (OD600 growth curve),"[6]; 12 μg mL^−1 antibiotic, 17 h",none of the strains of transformed E. coli were able to grow at all
same,Growth (OD600 growth curve),"[7]; 12 μg mL^−1 antibiotic, 17 h",none of the strains of transformed E. coli were able to grow at all
same,Level of resistance relative to empty vector control (OD600 growth curve),[7]; all concentrations tested,unable to outperform the empty vector control in any experiments
same,Level of resistance relative to empty vector control (OD600 growth curve),[8]; [18],greater level of resistance than the empty vector control
same,Growth (OD600 growth curve),"[8]; 12 μg mL^−1 antibiotic, 17 h",none of the strains of transformed E. coli were able to grow at all
AAC(3)-IIIa (Pseudomonas aeruginosa),Km,[9],13 ± 4 µM
same,kcat,[9],36 ± 5 s⁻¹
same,kcat/Km,[9],2.7e+06 ± 1.1e+06 M⁻¹ s⁻¹
AAC(3)-Ia from Acinetobacter baumannii (enzyme),stoichiometry N,[10],2
AAC(3)-XIa (Corynebacterium striatum),Km,[11],0.8 ± 0.2 µM
same,kcat,[11],0.2 ± 0.003 s⁻¹
same,kcat/Km,[11],200000 ± 40000 M⁻¹ s⁻¹
same,Km,[12],6.8 ± 0.7 µM
same,kcat,[12],0.4 ± 0.01 s⁻¹
same,kcat/Km,[12],60000 ± 10000 M⁻¹ s⁻¹
